For test [1], the system named is human promyelocytic leukemia cell HL-60. Description: in vitro tumor cell proliferation inhibition assay (MTT), HL-60. The test is classed as cell-based. The settings on record: for absorbance at 570 nm, Average: average of 3 wells; for absorbance at 570 nm, Average / Survival / absorbance at 570 nm (single well, S/N 1-3): parallel tests I-III; for absorbance at 570 nm (single well, S/N 1-3): MTT. As for the experimental part:
(§1) The abietane type diterpene compound Leucosceptrum A prepared in Embodiment 2 is tested for its anti-tumor ability, with a process as follows: in vitro tumor cell proliferation inhibition assay: exponential phase tumor cells are taken and the cell suspension concentration is adjusted (50,000-100,000 cells/mL), then the cell suspension is inoculated in 96-well plate with 100 microlitres (u L) per well (M L/well), followed by drug administration (100 μL/well) 24 h after inoculation; a blank control group, a cell control group and 6 drug groups with concentrations (3.12, 6.25, 12.5, 25, 50, 100 micromoles per litre (u mol/L)) are set up respectively, and the drug in the cell control group is cisplatin; after continuous cultivation for 72 […]

Test [2] has as its system human lung cancer cell A549. Description: in vitro tumor cell proliferation inhibition assay (MTT), A549. The settings on record: for absorbance at 570 nm, Average: average of 3 wells; for absorbance at 570 nm, Average / Survival / absorbance at 570 nm (single well, S/N 1-3): parallel tests I-III; for absorbance at 570 nm (single well, S/N 1-3): MTT. The test is classed as cell-based. As to the method: as §1

The subject of another test is mouse liver cancer cells. The following applies: MTT assay, reported in CN101633660A; cited from earlier work. For orientation: Tetrazolium dyes change colour on reduction, which living cells bring about.
The subject of a further test is mouse sarcoma cells. The following applies: MTT assay, reported in CN101633660A; cited from earlier work.
[3] abbreviates: HL-60, 72 h, mean ± spread of parallel tests, unit inferred, read-out: IC50 obtained according to the above data (three parallel tests).
[4] abbreviates: HL-60, 72 h, one value per parallel test I, II, III, unit not given (concentrations in μmol/L), read-out: IC50 according to Graphpad Prism 6.0 (single parallel test).
Where [5] appears, read: A549, 72 h, mean ± spread of parallel tests, unit inferred, read-out: IC50 according to the above data (three parallel tests).
Setting [6] is: A549, 72 h, one value per parallel test I, II, III, unit not given (concentrations in μmol/L), read-out: IC50 according to Graphpad Prism 6.0 (single parallel test).

The values below come from patent publication US11981630B1, “Abietane type diterpene compound, preparation method and application thereof” (Hangzhou Normal University, priority 2022, dated 2024).

Values joined by “and” are separate entries in the source; they are usually repeats but may differ in a detail not shown here. Identical values can stand only once. Like-named read-outs stand apart in the source and are kept apart here.

With `N.N.[Cl][Pt][Cl]` [Cisplatin, cisplatin, reference compound], the “absorbance at 570 nm, Average” value in test [1] (HL-60, 3.12 μmol/L, 72 h) was 0.6123 and 0.433 and 0.4877; in test [1] (HL-60, 6.25 μmol/L, 72 h), 0.416 and 0.3023 and 0.4303; in test [1] (HL-60, 12.5 μmol/L, 72 h) it was 0.312 and 0.2347 and 0.231; in test [1] (HL-60, 50 μmol/L, 72 h), 0.11 and 0.076 and 0.0597; in test [1] (HL-60, 100 μmol/L, 72 h) it was 0.0213 and 0.0253 and 0.017; in test [2] (A549, 3.12 μmol/L, 72 h), 0.666 and 0.6207 and 0.678. For the same compound, the “absorbance at 570 nm, Average” value in test [2] (A549, 6.25 μmol/L, 72 h) is 0.442 and 0.4673 and 0.4623; in test [2] (A549, 12.5 μmol/L, 72 h), 0.2543 and 0.2593 and 0.265; in test [2] (A549, 50 μmol/L, 72 h), 0.2027 and 0.2047 and 0.2257; in test [2] (A549, 100 μmol/L, 72 h), 0.1913 and 0.189 and 0.2023. The Survival in test [1] (HL-60, 3.12 μmol/L, 72 h) was 96.57% and 87.56% and 92.66%; in test [1] (HL-60, 6.25 μmol/L, 72 h) it was 65.51% and 61.20% and 81.78%; in test [1] (HL-60, 12.5 μmol/L, 72 h), 49.05% and 47.55% and 43.96%; in test [1] (HL-60, 25 μmol/L, 72 h), 43.57% and 22.80% and 31.06%; in test [1] (HL-60, 50 μmol/L, 72 h), 17.09% and 15.53% and 11.45%; in test [1] (HL-60, 100 μmol/L, 72 h), 3.06% and 5.31% and 3.35%. The Survival in test [2] (A549, 3.12 μmol/L, 72 h) is 97.75% and 98.46% and 96.86%; in test [2] (A549, 6.25 μmol/L, 72 h), 64.82% and 74.09% and 66.03%; in test [2] (A549, 12.5 μmol/L, 72 h), 37.24% and 41.02% and 37.88%; in test [2] (A549, 25 μmol/L, 72 h) it was 35.18% and 37.36% and 35.35%; in test [2] (A549, 50 μmol/L, 72 h), 29.64% and 32.33% and 32.21%; in test [2] (A549, 100 μmol/L, 72 h), 27.98% and 29.84% and 28.87%. Moreover, in test [1] (HL-60, 12.5 μmol/L, 72 h), the “absorbance at 570 nm (single well, S/N 1-3)” value is 0.346 and 0.244 and 0.185 and 0.299 and 0.22 and 0.197 and 0.201 and 0.295. The IC50 (commonly the point on the concentration scale where inhibition reaches its midpoint) in test [1] (setting [3]) is 12.7 ± 1.87 µM; in test [1] (setting [4]), 14.4 µM and 10.7 µM and 13.2 µM; in test [2] (setting [5]), 16 ± 1.69 µM; in test [2] (setting [6]), 14.6 µM and 17.9 µM and 15.4 µM.

With `C=C(C)c1cc(O)c2c(c1O)C(=O)CC1C(C)(C)CCCC21C` (stereo not drawn) [Leucosceptrum A, 11,14-dihydroxy-8,11,13,15-abietatetraen-7-one], the “absorbance at 570 nm, Average” value in test [1] (HL-60, 3.12 μmol/L, 72 h) is 0.4477 and 0.4213 and 0.3807; in test [1] (HL-60, 6.25 μmol/L, 72 h), 0.3683 and 0.3987 and 0.364; in test [1] (HL-60, 12.5 μmol/L, 72 h) it was 0.221 and 0.1817 and 0.281; in test [1] (HL-60, 25 μmol/L, 72 h) it was 0.0887 and 0.0577 and 0.069; in test [1] (HL-60, 50 μmol/L, 72 h), 0.052 and 0.0433 and 0.048; in test [1] (HL-60, 100 μmol/L, 72 h), 0.0303 and 0.032 and 0.039. For the same compound, the “absorbance at 570 nm, Average” value is 0.815 and 0.7807 and 0.813 in test [2] (A549, 3.12 μmol/L, 72 h); 0.7823 and 0.7553 and 0.7943 in test [2] (A549, 6.25 μmol/L, 72 h); 0.6333 and 0.6687 and 0.59 in test [2] (A549, 12.5 μmol/L, 72 h); 0.1827 and 0.192 and 0.1953 in test [2] (A549, 25 μmol/L, 72 h); 0.0813 and 0.07 and 0.0793 in test [2] (A549, 50 μmol/L, 72 h); 0.0767 and 0.0657 and 0.069 in test [2] (A549, 100 μmol/L, 72 h). In addition, the Survival in test [1] (HL-60, 3.12 μmol/L, 72 h) was 82.21% and 78.96% and 66.67%; in test [1] (HL-60, 6.25 μmol/L, 72 h), 67.61% and 74.70% and 63.73%; in test [1] (HL-60, 12.5 μmol/L, 72 h), 40.49% and 33.94% and 49.09%; in test [1] (HL-60, 25 μmol/L, 72 h) it was 16.13% and 10.64% and 11.79%; in test [1] (HL-60, 50 μmol/L, 72 h), 9.39% and 7.95% and 8.00%; in test [1] (HL-60, 100 μmol/L, 72 h), 5.40% and 5.82% and 6.41%. In addition, the Survival in test [2] (A549, 3.12 μmol/L, 72 h) was 98.11% and 95.42% and 95.31%; in test [2] (A549, 6.25 μmol/L, 72 h) it was 94.17% and 92.31% and 93.11%; in test [2] (A549, 12.5 μmol/L, 72 h) it was 76.22% and 81.68% and 69.13%; in test [2] (A549, 25 μmol/L, 72 h) it was 21.90% and 23.22% and 22.81%; in test [2] (A549, 50 μmol/L, 72 h) it was 9.68% and 8.76% and 9.19%; in test [2] (A549, 100 μmol/L, 72 h), 9.12% and 7.73% and 7.98%. Further, the “absorbance at 570 nm (single well, S/N 1-3)” value was 0.049 and 0.054 and 0.053 and 0.048 and 0.045 and 0.037 and 0.038 in test [1] (HL-60, 50 μmol/L, 72 h); 0.828 and 0.791 and 0.728 and 0.711 and 0.786 and 0.769 and 0.822 and 0.77 in test [2] (A549, 6.25 μmol/L, 72 h); 0.085 and 0.074 and 0.077 and 0.059 and 0.071 and 0.079 and 0.088 in test [2] (A549, 50 μmol/L, 72 h); 0.078 and 0.067 and 0.085 and 0.073 and 0.066 and 0.058 in test [2] (A549, 100 μmol/L, 72 h). Further, the half-inhibitory concentration (IC50) in test [1] (setting [3]) is 9.06 ± 0.59 µM; in test [1] (setting [4]) it was 9.58 µM and 9.19 µM and 8.42 µM; in test [1] (HL-60 cells, 72 h, read-out: 72-hour IC50), 9.06 ± 0.59 µM; in test [2] (setting [5]), 17.5 ± 0.88 µM; in test [2] (setting [6]), 17.6 µM and 18.4 µM and 16.6 µM; in test [2] (A-549 cells, 72 h, read-out: 72-hour IC50), 17.5 ± 0.88 µM.

On to lushanrubescensin D, for which the “inhibitory effect on mouse liver cancer cells” value in the test on mouse liver cancer cells is recorded as “significant inhibitory effect”. Also, the “inhibitory effect on mouse sarcoma cells” value with mouse sarcoma cells is recorded as “significant inhibitory effect”.
